Test results from patent publication US20210068395A1, “METHODS OF APPLYING ONE OR MORE CERTAIN HETEROARYL-1,2,4-TRIAZOLE AND HETEROARYL-TETRAZOLE COMPOUNDS TO CONTROL DAMAGE ON PLANTS, PROPAGATION MATERIAL THEREOF, AND PLANT DERIVED PRODUCTS” (SYNGENTA CROP PROTECTION AG, priority 2018, published 2021).
Where two headings read alike, the source gives them in different places.

Legend:
Assay type in all cases: in vivo
[1] = system: Plutella xylostella (Diamond Back Moth); test: Plutella xylostella feeding/contact activity, 24-well artificial diet; details: 192 h, read-out: control in at least one of the two categories (mortality or growth inhibition)
Procedure: 24-well microtiter plates with artificial diet were treated with aqueous test solutions prepared from 10,000 ppm DMSO stock solutions by pipetting. After drying, Plutella eggs were pipetted through a plastic stencil onto a gel blotting paper and the plate was closed with it. The samples were assessed for mortality and growth inhibition in comparison to untreated samples 8 days after infestation.

[2] = system: Diabrotica balteata (corn root worm); test: Diabrotica balteata (corn root worm), sprayed maize sprouts; details: 96 h, read-out: control in at least one of the two categories (mortality or growth inhibition)
Procedure: Maize sprouts placed onto an agar layer in 24-well microtiter plates were treated with aqueous test solutions prepared from 10,000 ppm DMSO stock solutions by spraying. After drying, the plates were infested with L2 larvae (6 to 8 per well). The samples were assessed for mortality and growth inhibition in comparison to untreated samples 4 days after infestation.

[3] = system: Spodoptera littoralis (Egyptian Cotton Leaf Worm); test: Spodoptera littoralis feeding/contact activity; details: foliar, 72 h, read-out: control in at least one of the three categories (mortality or growth inhibition or anti-feeding)
Procedure: Cotton leaf discs were placed onto agar in 24-well microtiter plates and sprayed with aqueous test solutions prepared from 10,000 ppm DMSO stock solutions. After drying the leaf discs were infested with five L1 larvae. The samples were assessed for mortality, anti-feeding and growth inhibition 3 days after infestation.

[4] = system: Thrips tabaci (Onion thrips); test: Thrips tabaci feeding/contact activity; details: foliar, 144 h, read-out: control in at least one of the two categories (mortality or anti-feeding)
Procedure: Sunflower leaf discs were placed on agar in 24-well microtiter plates and sprayed with aqueous test solutions prepared from 10,000 ppm DMSO stock solutions. After drying the leaf discs were infested with a thrips population of mixed ages. The samples were assessed for mortality, and anti-feeding 6 days after infestation.

[5] = system: Plutella xylostella (Diamond Back Moth); test: Plutella xylostella feeding/contact activity, 96-well artificial diet; details: 216 h, application rate 500 ppm, 9 days after infestation
Procedure: 1, 2, 3, 4, 17, 19, 23, 26, 39, 41, 42, 54, 55, 56 Plutella xylostella (Diamond Back Moth):Feeding/Contact Activity 96-well microtiter plates containing artificial diet were treated with aqueous test solutions, prepared from 10,000 ppm DMSO stock solutions, by a liquid handling robot. After drying, eggs (˜30 per well) were infested onto a netted lid which was suspended above the diet. The eggs hatch and L1 larvae move down to the diet. The samples were assessed for mortality 9 days after infestation.

[6] = system: Euschistus heros (Neotropical Brown Stink Bug); test: Euschistus heros feeding/contact activity; details: 120 h, read-out: control in at least one of the two categories (mortality or growth inhibition)
Procedure: Soybean leaves on agar in 24-well microtiter plates were sprayed with aqueous test solutions prepared from 10,000 ppm DMSO stock solutions. After drying the leaves were infested with N2 nymphs. The samples were assessed for mortality and growth inhibition 5 days after infestation.

[7] = system: Myzus persicae (Green Peach Aphid); test: Myzus persicae feeding activity (sucrose solution, Parafilm); details: 120 h, test rate 12.5 ppm, in sucrose solution, 5 days after infestation
Procedure: Test compounds prepared from 10,000 ppm DMSO stock solutions were applied by pipette into 24-well microtiter plates and mixed with sucrose solution. The plates were closed with a stretched Parafilm. A plastic stencil with 24 holes was placed onto the plate and infested pea seedlings were placed directly on the Parafilm. The infested plate was closed with a gel blotting paper and another plastic stencil and then turned upside down. The samples were assessed for mortality 5 days after infestation.

[8] = system: Spodoptera littoralis (Egyptian Cotton Leaf Worm); test: Spodoptera littoralis systemic activity (lettuce); details: 144 h, test rate 12.5 ppm, root uptake in lettuce, 6 days after infestation, read-out: control in at least one of the three categories (mortality or growth inhibition or anti-feeding)
From the text: Test compounds were applied by pipette prepared from 10,000 ppm DMSO stock solutions into 24-well plates and mixed with agar. Lettuce seeds were placed onto the agar and the multi well plate was closed by another plate which contained also agar. After 7 days the compound was absorbed by the roots and the lettuce grew into the lid plate. The lettuce leaves were then cut off into the lid plate. Spodoptera eggs were pipetted through a plastic stencil onto a humid gel blotting paper and the lid plate was closed with it. The samples were assessed for mortality, anti-feeding and growth inhibition 6 days after infestation.

[9] = system: Myzus persicae (Green Peach Aphid); test: Myzus persicae systemic activity; details: 144 h, test rate 24 ppm, roots of pea seedlings in test solution, 6 days
Procedure: Roots of pea seedlings infested with an aphid population of mixed ages were placed directly into aqueous test solutions prepared from 10,000 DMSO stock solutions. The samples were assessed for mortality 6 days after placing seedlings into test solutions.

[10] = system: Myzus persicae (Green Peach Aphid); test: Myzus persicae feeding/contact activity; details: foliar, 144 h, application rate 200 ppm, sunflower leaf discs sprayed, 6 days after infestation
Procedure: Sunflower leaf discs were placed onto agar in a 24-well microtiter plate and sprayed with aqueous test solutions prepared from 10,000 ppm DMSO stock solutions. After drying, the leaf discs were infested with an aphid population of mixed ages. The samples were assessed for mortality 6 days after infestation.

[11] = application rate 200 ppm, 24-well artificial diet, 8 days after infestation
[12] = application rate 200 ppm, L2 larvae, 4 days after infestation
[13] = application rate 200 ppm, L1 larvae on cotton leaf discs, 3 days after infestation
[14] = application rate 200 ppm, sunflower leaf discs, 6 days after infestation
[15] = application rate 200 ppm, N2 nymphs on soybean leaves, 5 days after infestation

C[C@@H](c1ncnn1-c1ncccn1)N(C)C(=O)c1cc(C(F)(F)F)cc(C(F)(F)F)c1 [Compound 6]
≥ 80%: percent control (mortality or growth inhibition) at 200 ppm [1, 11] | percent control (mortality or growth inhibition) at 200 ppm [2, 12] | percent control (mortality, anti-feedant effect or growth inhibition) at 200 ppm [3, 13]

COC(=O)c1nc(C(C)NC(=O)c2cc(C(F)(F)F)cc(C(F)(F)F)c2)n(-c2ncccn2)n1 (stereo not shown) [Compound 7]
≥ 80%: percent control (mortality, anti-feedant effect or growth inhibition) at 200 ppm [4, 14] | percent control (mortality or growth inhibition) at 200 ppm [1, 11] | percent control (mortality or growth inhibition) at 200 ppm [2, 12] | mortality at 500 ppm [5] | percent control (mortality, anti-feedant effect or growth inhibition) at 200 ppm [3, 13]

CCOC(OCC)c1nc(C(C)NC(=O)c2cc(C(F)(F)F)cc(C(F)(F)F)c2)n(-c2ncccn2)n1 (stereo not shown) [Compound 8]
≥ 80%: percent control (mortality or growth inhibition) at 200 ppm [1, 11] | percent control (mortality or growth inhibition) at 200 ppm [2, 12] | mortality at 500 ppm [5]

CC(c1ncnn1-c1ncccn1)N(C[Si](C)(C)C)C(=O)c1cc(C(F)(F)F)cc(C(F)(F)F)c1 (stereo not shown) [Compound 16]
≥ 80%: percent control (mortality, anti-feedant effect or growth inhibition) at 200 ppm [4] | percent control (mortality or growth inhibition) at 200 ppm [1] | percent control (mortality or growth inhibition) at 200 ppm [2] | percent control (mortality, anti-feedant effect or growth inhibition) at 200 ppm [3] | percent control (mortality or growth inhibition) at 200 ppm ([6]; in Glycine max)

CC(c1ncnn1-c1ncccn1)N(CC1CC1)C(=O)c1cc(Br)cc(C(F)(F)F)c1 (stereo not shown) [Compound 19]
≥ 80%: percent control (mortality or growth inhibition) at 200 ppm [1, 11] | percent control (mortality or growth inhibition) at 200 ppm [2, 12] | mortality at 12.5 ppm [7] | mortality at 500 ppm [5] | percent control (mortality, anti-feedant effect or growth inhibition) at 200 ppm [3, 13] | percent control (mortality or growth inhibition) at 200 ppm [6, 15]

CC(c1ncnn1-c1ncccn1)N(CC1CC1)C(=O)c1cc(Cl)cc(C(F)(F)F)c1 (stereo not shown) [Compound 23]
≥ 80%: percent control (mortality or growth inhibition) at 200 ppm [1, 11] | percent control (mortality or growth inhibition) at 200 ppm [2, 12] | mortality at 12.5 ppm [7] | mortality at 500 ppm [5] | percent control (mortality, anti-feedant effect or growth inhibition) at 200 ppm [3, 13] | percent control (mortality, anti-feedant effect or growth inhibition) at 12.5 ppm [8]

COc1cnc(-n2ncnc2C(C)N(CC2CC2)C(=O)c2cc(C(F)(F)F)cc(C(F)(F)F)c2)nc1 (stereo not shown) [Compound 24]
≥ 80%: percent control (mortality or growth inhibition) at 200 ppm [1, 11] | percent control (mortality or growth inhibition) at 200 ppm [2, 12]

CC(c1ncnn1-c1ncccn1)N(CC1CC1)C(=O)c1cccc(C#N)c1 (stereo not shown) [Compound 25]
≥ 80%: percent control (mortality or growth inhibition) at 200 ppm [2, 12]

CC(c1ncnn1-c1ncccn1)N(CC1CC1)C(=O)c1cc(C(F)(F)F)nc(C(F)(F)F)c1 (stereo not shown) [Compound 41]
≥ 80%: percent control (mortality, anti-feedant effect or growth inhibition) at 200 ppm [4, 14] | percent control (mortality or growth inhibition) at 200 ppm [1, 11] | percent control (mortality or growth inhibition) at 200 ppm [2, 12] | mortality at 12.5 ppm [7] | mortality at 500 ppm [5] | percent control (mortality, anti-feedant effect or growth inhibition) at 200 ppm [3, 13] | percent control (mortality or growth inhibition) at 200 ppm [6, 15]

CC(c1ncnn1-c1ncccn1)N(CC1CC1)C(=O)c1cc(C#N)cc(C(F)(F)F)c1 (stereo not shown) [Compound 42]
≥ 80%: percent control (mortality, anti-feedant effect or growth inhibition) at 200 ppm [4, 14] | mortality at 24 ppm [9] | percent control (mortality or growth inhibition) at 200 ppm [1, 11] | percent control (mortality or growth inhibition) at 200 ppm [2, 12] | mortality at 12.5 ppm [7] | mortality at 500 ppm [5] | percent control (mortality, anti-feedant effect or growth inhibition) at 200 ppm [3, 13] | percent control (mortality or growth inhibition) at 200 ppm [6, 15]

CC(c1ncnn1-c1ncccn1)N(CC1CC1)C(=O)c1cncc(C(F)(F)F)c1 (stereo not shown) [Compound 47]
≥ 80%: percent control (mortality or growth inhibition) at 200 ppm [2, 12] | mortality at 500 ppm [5] | percent control (mortality or growth inhibition) at 200 ppm [6, 15]

CC(c1ncnn1-c1ncccn1)N(CCCF)C(=O)c1cc(C(F)(F)F)cc(C(F)(F)F)c1 (stereo not shown) [Compound 54]
≥ 80%: percent control (mortality or growth inhibition) at 200 ppm [1, 11] | percent control (mortality or growth inhibition) at 200 ppm [2, 12] | mortality at 12.5 ppm [7] | mortality at 200 ppm [10] | percent control (mortality, anti-feedant effect or growth inhibition) at 200 ppm [3, 13]

CC(c1ncnn1-c1ncccn1)N(CCC(F)(F)F)C(=O)c1cc(C(F)(F)F)cc(C(F)(F)F)c1 (stereo not shown) [Compound 55]
≥ 80%: percent control (mortality, anti-feedant effect or growth inhibition) at 200 ppm [4, 14] | percent control (mortality or growth inhibition) at 200 ppm [1, 11] | percent control (mortality or growth inhibition) at 200 ppm [2, 12] | mortality at 12.5 ppm [7] | mortality at 500 ppm [5] | mortality at 200 ppm [10] | percent control (mortality, anti-feedant effect or growth inhibition) at 200 ppm [3, 13] | percent control (mortality or growth inhibition) at 200 ppm [6, 15] | percent control (mortality, anti-feedant effect or growth inhibition) at 12.5 ppm [8]

CC(c1ncnn1-c1ncccn1)N(CCF)C(=O)c1cc(C(F)(F)F)cc(C(F)(F)F)c1 (stereo not shown) [Compound 56]
≥ 80%: mortality at 24 ppm [9] | percent control (mortality or growth inhibition) at 200 ppm [1, 11] | percent control (mortality or growth inhibition) at 200 ppm [2, 12] | mortality at 12.5 ppm [7] | mortality at 500 ppm [5] | mortality at 200 ppm [10] | percent control (mortality, anti-feedant effect or growth inhibition) at 200 ppm [3, 13] | percent control (mortality or growth inhibition) at 200 ppm [6, 15] | percent control (mortality, anti-feedant effect or growth inhibition) at 12.5 ppm [8]

CC(c1ncnn1-c1ccccn1)N(CC1COC1)C(=O)c1cc(C(F)(F)F)cc(C(F)(F)F)c1 (stereo not shown) [Compound 62]
≥ 80%: percent control (mortality or growth inhibition) at 200 ppm [2, 12]
